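Step 1: Grow cells in 96-well plates. Step 2: Expose to compound for 48 hours at 5 concentrations. Step 3: Interpolate endpoints linearly; if unreached, use highest concentration. GI50 marks 50% less growth. The concentration for full growth arrest is given as TGI.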
Experiments:
Assay in all cases: NCI-60 cell line screen, 48 h
[1] = system: NCI-H460 lung
[2] = system: RXF 393 renal
[3] = system: HCC-2998 colon
[4] = system: UACC-62 melanoma
[5] = system: SK-MEL-5 melanoma
[6] = system: MDA-MB-435
[7] = system: M14 melanoma
[8] = system: OVCAR-3 ovarian
[9] = system: HCT-15 colon
[10] = system: UACC-257 melanoma

| Compound | GI50 [1] [µM] | TGI [1] [µM] | GI50 [2] [µM] | TGI [2] [µM] | GI50 [3] [µM] | TGI [3] [µM] | GI50 [4] [µM] | TGI [4] [µM] | GI50 [5] [µM] | TGI [5] [µM] | GI50 [6] [µM] | TGI [6] [µM] | GI50 [7] [µM] | TGI [7] [µM] | GI50 [8] [µM] | TGI [8] [µM] | GI50 [9] [µM] | TGI [9] [µM] | GI50 [10] [µM] | TGI [10] [µM] |
| --- | --- | --- | --- | --- | --- | --- | --- | --- | --- | --- | --- | --- | --- | --- | --- | --- | --- | --- | --- | --- |
| NC1=NC(c2ccccc2Cl)c2c(n[nH]c2N)N1 (stereo not given) | 5.9 | > 100 | 13.7 | 97.6 | 65 | > 100 | 13.5 | > 100 | 29.2 | > 100 | 15 | > 100 | 18.1 | > 100 | 32.1 | > 100 | 30.8 | > 100 | 94.6 | > 100 |
| CC(C)(C)O/N=C/c1cc(NC(=S)c2ccccc2)ccc1Cl |  | 24.3 |  | 27.9 |  | 24.2 |  | 32.7 |  | 41.5 |  | 88.7 |  | 54.1 |  | 35.3 |  | 32.1 |  | 31 |
